No end group written: not given here.
System: Fibroblasts (CCD-986SK)
Test: Measurement of collagen content in cell line (Procollagen type I peptide EIA kit)
Format: cell-based
Settings: FIG. 4
Experimental: The culture supernatant was collected and the amount of collagen was measured as described below according to the guidelines of the Ministry of Food and Drug Safety, and the results thereof are shown in FIG. 4.
100 μl of an antibody-PoD conjugate solution was placed in each well, after which the culture solution and a standard solution were added in an amount of 20 μL thereto and cultured at 37° C. for 3 hr. The culture solution was removed from the well, followed by washing four times with 400 μL of a phosphate-buffered saline (PBS). 100 μL of a color development reagent (Procollagen type I peptide EIA kit, Takara Biomedical Co.) was added thereto, followed by culture at room temperature for 15 min, addition with 100 μL of 1 N sulfuric acid, and measurement at 450 nm using an ELISA reader.

Compound | collagen synthesis and promotion effects (50 to 200 ppm) | also measured
KTTKS-TA: sulfhydryl KTTKS of Example 1-3-1-2; Chemical Formula 5 Lys-Thr-Thr-Lys-Ser-X with linker X thioglycolic acid (TA) (KTTKS-{thioglycolic acid}) | vastly superior compared to KTTKS | 
(EEMQRR)-TA: sulfhydryl-hexapeptide of Example 1-3-1-3; Chemical Formula 7 Glu-Glu-Met-Gln-Arg-Arg-X with linker X thioglycolic acid (TA) (EEMQRR-{thioglycolic acid}) |  | collagen synthesis and promotion effects (thioglycolic acid (TA) as the linker compared to cysteine (CS) as the linker): superior collagen synthesis and promotion effects
KTTKS [reference compound] | increased in proportion to the concentration | 
NCCCC[C@H](NC(=O)[C@H](Cc1c[nH]cn1)NC(=O)CNC(=O)CS)C(=O)O [GHK-TA] |  | collagen synthesis and promotion effects (concentration of 70 to 80 ppm, 24 hr): superior collagen synthesis and promotion effects

From US20210196899A1, “MICRONEEDLE COATED WITH DRUG AND MANUFACTURING METHOD FOR SAME” (SR BIOTEK INC., priority 2018, published 2021)
